According to ChEMBL document CHEMBL1133210, “Synthesis of tetrakis(multifluoro-4-pyridyl)porphin derivatives as acetylcholinesterase inhibitors” (Bioorg Med Chem Lett, 2000):

Each molecule was assayed on Gallus gallus (assay: Compound was tested in vivo for antiangiogenic activity (10 microg dose/ egg) on chorioallantoic membrane of growing chick embryos).
Assay type: functional

C[n+]1ccc(-c2c3nc(c(-c4cc[n+](C)cc4F)c4ccc([nH]4)c(-c4cc[n+](C)cc4F)c4ccc([nH]4)c(-c4cc[n+](C)cc4F)c4nc2C=C4)C=C3)c(F)c1.Cc1ccc(S(=O)(=O)[O-])cc1.Cc1ccc(S(=O)(=O)[O-])cc1.Cc1ccc(S(=O)(=O)[O-])cc1.Cc1ccc(S(=O)(=O)[O-])cc1 was tested, and the Inhibition was 60%.

What follows are molecules tested against Acetylcholinesterase (Electrophorus electricus, UniProt O42275) (assay: Inhibition constant (Ki) against electric eel Acetylcholinesterase as Km/Vmax versus inhibitor concentration replot).
Chain of Acetylcholinesterase (O42275 whole entry): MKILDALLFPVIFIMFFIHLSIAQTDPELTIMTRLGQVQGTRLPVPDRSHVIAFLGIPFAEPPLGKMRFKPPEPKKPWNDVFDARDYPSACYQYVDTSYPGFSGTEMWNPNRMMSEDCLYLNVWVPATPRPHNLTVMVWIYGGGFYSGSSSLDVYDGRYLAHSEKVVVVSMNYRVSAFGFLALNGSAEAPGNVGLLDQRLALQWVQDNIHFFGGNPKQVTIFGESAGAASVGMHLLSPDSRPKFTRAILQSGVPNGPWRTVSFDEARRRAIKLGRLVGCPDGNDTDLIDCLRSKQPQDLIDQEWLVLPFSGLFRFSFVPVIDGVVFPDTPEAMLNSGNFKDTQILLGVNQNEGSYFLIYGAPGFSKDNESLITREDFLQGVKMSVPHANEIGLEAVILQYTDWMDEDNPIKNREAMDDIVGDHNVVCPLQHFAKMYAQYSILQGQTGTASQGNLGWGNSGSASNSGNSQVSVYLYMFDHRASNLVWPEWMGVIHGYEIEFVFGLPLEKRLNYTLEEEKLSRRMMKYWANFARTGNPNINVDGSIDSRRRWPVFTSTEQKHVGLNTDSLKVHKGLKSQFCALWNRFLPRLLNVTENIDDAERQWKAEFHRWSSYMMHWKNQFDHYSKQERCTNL

Point of comparison: Fc1nc(F)c(F)c(-c2c3nc(c(-c4c(F)c(F)nc(F)c4F)c4ccc([nH]4)c(-c4c(F)c(F)nc(F)c4F)c4ccc([nH]4)c(-c4c(F)c(F)nc(F)c4F)c4nc2C=C4)C=C3)c1F, Ki 7.29 µM. Against it:
- Fc1cccc(-c2c3nc(c(-c4cccc(F)c4)c4ccc([nH]4)c(-c4cccc(F)c4)c4ccc([nH]4)c(-c4cccc(F)c4)c4nc2C=C4)C=C3)c1 — within 1.5-fold, 9.7 µM
- Oc1cccc(-c2c3nc(c(-c4cccc(O)c4)c4ccc([nH]4)c(-c4cccc(O)c4)c4ccc([nH]4)c(-c4cccc(O)c4)c4nc2C=C4)C=C3)c1 — 4.1-fold higher, 29.6 µM
- Fc1cccc(F)c1-c1c2nc(c(-c3c(F)cccc3F)c3ccc([nH]3)c(-c3c(F)cccc3F)c3ccc([nH]3)c(-c3c(F)cccc3F)c3nc1C=C3)C=C2 — 1500-fold lower, 0.005 µM
- Fc1cnc(F)c(F)c1-c1c2nc(c(-c3c(F)cnc(F)c3F)c3ccc([nH]3)c(-c3c(F)cnc(F)c3F)c3ccc([nH]3)c(-c3c(F)cnc(F)c3F)c3nc1C=C3)C=C2 — 2.6-fold lower, 2.85 µM
- Fc1ccc(-c2c3nc(c(-c4ccc(F)cc4F)c4ccc([nH]4)c(-c4ccc(F)cc4F)c4ccc([nH]4)c(-c4ccc(F)cc4F)c4nc2C=C4)C=C3)c(F)c1 — 610-fold lower, 0.012 µM
- Fc1cnccc1-c1c2nc(c(-c3ccncc3F)c3ccc([nH]3)c(-c3ccncc3F)c3ccc([nH]3)c(-c3ccncc3F)c3nc1C=C3)C=C2 — within 1.5-fold, 5.08 µM
- Oc1ccccc1-c1c2nc(c(-c3ccccc3O)c3ccc([nH]3)c(-c3ccccc3O)c3ccc([nH]3)c(-c3ccccc3O)c3nc1C=C3)C=C2 — 2.5-fold higher, 18.3 µM
- C[n+]1ccc(-c2c3nc(c(-c4cc[n+](C)cc4F)c4ccc([nH]4)c(-c4cc[n+](C)cc4F)c4ccc([nH]4)c(-c4cc[n+](C)cc4F)c4nc2C=C4)C=C3)c(F)c1.Cc1ccc(S(=O)(=O)[O-])cc1.Cc1ccc(S(=O)(=O)[O-])cc1.Cc1ccc(S(=O)(=O)[O-])cc1.Cc1ccc(S(=O)(=O)[O-])cc1 — 2.4-fold lower, 3.06 µM
- Oc1ccc(O)c(-c2c3nc(c(-c4cc(O)ccc4O)c4ccc([nH]4)c(-c4cc(O)ccc4O)c4ccc([nH]4)c(-c4cc(O)ccc4O)c4nc2C=C4)C=C3)c1 — 2.9-fold lower, 2.5 µM
- Fc1ccccc1-c1c2nc(c(-c3ccccc3F)c3ccc([nH]3)c(-c3ccccc3F)c3ccc([nH]3)c(-c3ccccc3F)c3nc1C=C3)C=C2 — 7-fold higher, 50.9 µM
